In paper PMC7073110, “Molecular Rescue of Dyrk1A Overexpression Alterations in Mice with Fontup® Dietary Supplement: Role of Green Tea Catechins” (International Journal of Molecular Sciences, 2020):
Like-named read-outs stand apart in the source and are kept apart here.

Columns and labels:
[1] = target: T1, DYRK1A-ΔC (truncated DYRK1A, catalytic domain residues 1–502) (Rattus norvegicus, UniProt Q63470); assay: DYRK1A-ΔC inhibition assay, HPLC/UFLC-based with fluorescent peptide substrate; assay type: biochemical; settings: for remaining activity at 0.1 µM: read-out: DYRK1A-ΔC Remaining Activity at 0.1 µM; for remaining activity at 1 µM: read-out: DYRK1A-ΔC Remaining Activity at 1 µM; for remaining activity at 100 µM: read-out: DYRK1A-ΔC Remaining Activity at 100 µM; for Effect on DYRK1A-ΔC activity (in words): 0.1–100 µM
T1 construct: catalytic domain (residues 1–502) of rat DYRK1A; 6xHis; made in house; host or cells: Escherichia coli BL21
Description: W. Becker (Aachen University, Aachen, Germany) and subcloned into pET28a plasmid to produce recombinant 6xHis-tagged DYRK1A catalytic domain (DYRK1A-ΔC). The pET28-Dyrk1a-ΔC plasmid was transformed into Escherichia coli cells (BL21) for production and purification of the enzyme. Briefly, transformed bacteria cells were grown at 37 °C for 4 h until OD was between 0.6–0.7 and further grown at 37 °C for 5 h in the presence of 0.5 mM isopropyl β-D-1-thiogalactopyranoside (IPTG). Cells were harvested by centrifugation at 6000× g, 4 °C for 10 min and the pellet was washed with PBS. The pellet was re-suspended in PBS supplemented with protease inhibitors, 1 mg/mL lysozyme and 0.1% Triton X-100. After 30 min incubation at 4 °C, the lysate was subjected to sonication on ice (6 min with pulse on 30 s/ off 30 s) and pelleted at 10,000× g, 4 °C for 30 min. The supernatant was incubated with His-select nickel resin (Sigma, Saint-Quentin Fallavier, France) for 2 h at 4 °C under agitation, and the resin was transferred into a column and washed with Tris-HCl 20 mM, pH 8, with 5 mM imidazole. Proteins were eluted in Tris-HCl 20 mM, pH 8, 300 mM imidazole, and dialyzed overnight against Tris-HCl 50 mM, pH 8, dithiothreitol (DTT) 10 mM, MgCl2 5 mM. Purified proteins were quantified with Bradford’s reagent (BioRad). Purity was assessed by sodium dodecyl sulfate-polyacrylamide gel electrophoresis (SDS-PAGE). Proteins were kept at −80 °C until use.
The fluorescent peptide substrate was derived from the sequence of the human transcription factor FKHR that is a physiological substrate of DYRK1A [46]. […] The enzymatic reaction was started by addition of the substrate and the mixture was incubated at 37 °C for 30 min. […] The peptides were monitored by fluorimetry (excitation at 485 nm, emission at 530 nm) and quantified by integration of the peak absorbance area. A calibration curve established with different known concentrations of peptides was used for quantification. For inhibition studies with green tea catechins, the compounds, dissolved in water, were added at four different concentrations (up to 100 µM) to the well prior to addition of ATP (1 mM final concentration). Determination of the mode of inhibition (competitive/non-competitive) of the compounds was obtained by carrying assays with different concentrations of ATP (200, 400 and 800 µM).

[2] = target: T2, DYRK1A native human protein (Homo sapiens, UniProt Q13627); assay: DYRK1A inhibition assay, HPLC-based (native protein PV3785); assay type: biochemical
T2 construct: purchased Thermo Fisher Scientific PV3785

[3] = EGCG levels in plasma and brain after oral gavage of FontUp; assay type: in vivo, mice; settings: for concentration at 4 h / Kp at 4 h: male, mouse, two days; for Kp at 4 h: brain/plasma, read-out: Kp (brain concentration/plasma concentration)
Description: FontUp® was prepared daily as described above and strongly mixed at room temperature. Male mice received an oral gavage of three different doses (25, 50 and 75 mg/Kg), in the morning and in the evening for two or eight days. The last dose was administered 4 h before sacrifice.
Blood samples were obtained by retro-orbital sinus sampling with heparinized capillaries, collected into tubes containing a 1/10 volume of 3.8% sodium citrate, and immediately placed on ice. Plasma was isolated by centrifugation at 2500× g for 15 min at 4 °C. 80 µL of plasma samples were mixed with 20 µL 0.2 M NaH2PO4 solution containing 20% ascorbic acid and 0.1% EDTA, pH 3.6 for polyphenol assays. Plasma samples were store at −80 °C until use. Brains and hearts were harvested, snap-frozen in liquid nitrogen, and stored at −80 °C until use. Plasma total hcy, defined as the total concentration of hcy after quantitative reductive cleavage of all disulfide bonds, and total GSH were assayed using a fluorometric HPLC method previously described. ALT concentrations were determined using the Alanine Aminotransferase Activity Assay Kit (Sigma-Aldrich, Saint-Quentin Fallavier, France), based on the pyruvate generated. Plasma galectin-3 (Abcam ELISA kit, Paris, France), and fibronectin (Abcam ELISA kit) were assessed using sandwich ELISA. After removal of unbound conjugates, bound enzyme activity was assessed by use of a chromogenic substrate for measurement at 450 nm by a microplate reader (Flex Station 3, Molecular Devices, Ltd., Wokhingham, UK).
Brains were homogenized with 1.5 mm diameter beads for 2 min at 25 frequencies/second using a tissue lyser II (Qiagen, Hilden, Germany). The homogenates were centrifuged at 13,000 rpm for 10 min at 4 °C. The supernatants were transferred in a clear tube and mixed with the preservative solution as mentioned at one-tenth of its volume.
The catechin contents was analyzed as previously reported. Two hundred microliters of plasma or brain samples homogenates were thawed at room temperature and 50 µL of 0.4 M sodium phosphate buffer (pH 7.4) were added. The sample was mixed with 10 µL of beta-glucuronidase (250 units) and 10 µL of sulfatase (10 units) and then incubated at 37 °C for 45 min. Then the plasma or brain samples were partitioned with ethyl acetate in the ratio of 1:1 (v/v). The liquid-liquid extraction was carried out three times for 1 min by shaking on vortex and the organic phases (upper phases) were pooled. The combined ethyl acetate phases were evaporated under vacuum to dryness. The dry residue was re-dissolved in 50% methanol in water and was kept at −80 °C before HPLC analysis. HPLC was performed with a LC Prominence (Shimadzu, Kyoto, Japan) coupled with a Coulochem III electrode array detector (ESA Inc., Bedford, MA, USA) using a reverse- Interchrom C18 column (3 µm, 150 × 2.1 mm) eluted with the eluent described below at a flow rate of 0.35 mL/min at 45 °C. HPLC analysis was performed using a linear gradient system with mobile phase A (20 mM NaH2PO4) and mobile phase B (acetonitrile). Linear gradient elution was performed as follows: 100% mobile phase A for 10 min; 55% mobile phase A for 30 min and return to 100% mobile phase A for 15 min. The eluent was monitored using the Coulochem-III electrochemical detector (5011 analytical cell) with potential settings at 600 mV (E1) and 700 mV (E2). Quantification was carried out using the external standard method. Catechin quantification was performed after data acquisition using an LC Solution (Shimadzu).

DYRK1A = settings: cited from earlier work
[4] = 0.1 µM compound, 1 mM ATP, 60 µM peptide, normalized to no inhibitor
[5] = 1 µM compound, 1 mM ATP, 60 µM peptide, normalized to no inhibitor
[6] = 10 µM compound, 1 mM ATP, 60 µM peptide, normalized to no inhibitor, read-out: DYRK1A-ΔC Remaining Activity at 10 µM
[7] = 100 µM compound, 1 mM ATP, 60 µM peptide, normalized to no inhibitor

With `O=C(O[C@@H]1Cc2c(O)cc(O)cc2O[C@@H]1c1ccc(O)c(O)c1)c1cc(O)c(O)c(O)c1` [ECG, epicatechin gallate] as the compound, how does the remaining activity at 0.1 µM [1, 4] read?
The remaining activity at 0.1 µM was 78.1 ± 3.6%.

And the remaining activity at 1 µM [1, 5]?
Its remaining activity at 1 µM is 27.1 ± 7.3%.

And the remaining activity at 10 µM ([1]; 10 µM compound, 200 µM ATP, up to 60 min at 37 °C, read-out: DYRK1A-ΔC Remaining Activity With 200 µM ATP)?
The remaining activity at 10 µM was 8 ± 0.8%.

And the remaining activity at 10 µM ([1]; 10 µM compound, 400 µM ATP, up to 60 min at 37 °C, read-out: DYRK1A-ΔC Remaining Activity with 400 µM ATP)?
The remaining activity at 10 µM was 6.5 ± 0.9%.

And the remaining activity at 10 µM ([1]; 10 µM compound, 800 µM ATP, up to 60 min at 37 °C, read-out: DYRK1A-ΔC Remaining Activity with 800 µM ATP)?
Its remaining activity at 10 µM is 4 ± 0.5%.

What about the remaining activity at 10 µM [1, 6] of the same compound?
The remaining activity at 10 µM was 11.8 ± 4.2%.

What about the remaining activity at 100 µM [1, 7] of the same compound?
Its remaining activity at 100 µM is 7.6 ± 2.3%.

And the remaining activity at 0.1 µM ([2]; 0.1 µM compound, 1 mM ATP, 60 µM peptide, native DYRK1A)?
Its remaining activity at 0.1 µM is 69.9 ± 3.9%.

And the remaining activity at 1 µM ([2]; 1 µM compound, 1 mM ATP, 60 µM peptide, native DYRK1A)?
Its remaining activity at 1 µM is 12.5 ± 2.4%.

And the remaining activity at 10 µM ([2]; 10 µM compound, 200 µM ATP, up to 60 min at 37 °C, read-out: DYRK1A Remaining Activity with 200 µM ATP)?
Its remaining activity at 10 µM is 9.4 ± 1.4%.

And the remaining activity at 10 µM ([2]; 10 µM compound, 400 µM ATP, up to 60 min at 37 °C, read-out: DYRK1A Remaining Activity with 400 µM ATP)?
Its remaining activity at 10 µM is 7 ± 1.1%.

What about the remaining activity at 10 µM ([2]; 10 µM compound, 800 µM ATP, up to 60 min at 37 °C, read-out: DYRK1A Remaining Activity with 800 µM ATP) of the same compound?
The remaining activity at 10 µM was 5.4 ± 0.9%.

And the remaining activity at 10 µM ([2]; 10 µM compound, 1 mM ATP, 60 µM peptide, native DYRK1A, read-out: DYRK1A Remaining Activity at 10 µM)?
The remaining activity at 10 µM was 4.6 ± 0.9%.

And the remaining activity at 100 µM ([2]; 100 µM compound, 1 mM ATP, 60 µM peptide, native DYRK1A)?
Its remaining activity at 100 µM is 2.3 ± 0.5%.

And the “Mode of inhibition of DYRK1A against ATP” value ([2]; DYRK1A-ΔC and DYRK1A, 10 µM compound, ATP 200–800 µM)?
The value was “noncompetitive inhibitor”.

With `Oc1cc(O)c2c(c1)O[C@H](c1cc(O)c(O)c(O)c1)[C@H](O)C2` [EGC, epigallocatechin] as the compound, how does the remaining activity at 0.1 µM [1, 4] read?
Its remaining activity at 0.1 µM is 99.5 ± 3.2%.

And the remaining activity at 1 µM [1, 5]?
The remaining activity at 1 µM was 93.6 ± 2.6%.

And the remaining activity at 10 µM [1, 6]?
The remaining activity at 10 µM was 80.6 ± 11.4%.

And the remaining activity at 100 µM [1, 7]?
Its remaining activity at 100 µM is 81.4 ± 12.8%.

What about the “Effect on DYRK1A-ΔC activity (in words)” value ([1]; 1 mM ATP) of the same compound?
The value was “No effect”.

Which results are given for `O=C(O[C@@H]1Cc2c(O)cc(O)cc2O[C@@H]1c1cc(O)c(O)c(O)c1)c1cc(O)c(O)c(O)c1` [EGCG, epigallocatechin-3-gallate]?
remaining activity at 0.1 µM [1]: 71.3 ± 4.6%; remaining activity at 1 µM [1]: 16.3 ± 2.3%; remaining activity at 10 µM ([1]; read-out: DYRK1A-ΔC Remaining Activity at 10 µM): 6.4 ± 1.1%; remaining activity at 100 µM [1]: 3.5 ± 0.8%; Crossing of the blood-brain barrier (in words) ([3]; WT and TgBACDyrk1A mice, FontUp D2, two days, from Kp): had crossed the BBB; concentration at 4 h ([3]; TgBACDyrk1A, brain, 50 mg/Kg, TgDyrk1A mice, FontUp D2 oral gavage, n = 5, p < 0.07): 50 nM; Kp at 4 h ([3]; TgBACDyrk1A, 50 mg/Kg, TgDyrk1A mice, FontUp D2 oral gavage): 3.6 ± 0.82; concentration at 4 h ([3]; TgBACDyrk1A, plasma, 50 mg/Kg, TgDyrk1A mice, FontUp D2 oral gavage, n = 5): 36 ± 11 nM; concentration at 4 h ([3]; brain, 50 mg/Kg, WT mice, FontUp D2 oral gavage, n = 5): 25 ± 7 nM; Kp at 4 h ([3]; 50 mg/Kg, WT mice, FontUp D2 oral gavage): 1.2 ± 0.33; concentration at 4 h ([3]; plasma, 50 mg/Kg, WT mice, FontUp D2 oral gavage, n = 5): 65 ± 23 nM; concentration at 4 h ([3]; plasma, WT mice, FontUp high dose D3 (75 mg/Kg) oral gavage, last dose 4 h before sacrifice): 104 ± 11.2 nM; concentration at 4 h ([3]; plasma, WT mice, FontUp intermediate dose D2 (50 mg/Kg) oral gavage, last dose 4 h before sacrifice): 63 ± 10.8 nM; concentration at 4 h ([3]; plasma, WT mice, FontUp low dose D1 (25 mg/Kg) oral gavage, last dose 4 h before sacrifice): 28 ± 0.0003 nM; Mode of inhibition of DYRK1A (DYRK1A; against both substrates): non-competitive inhibitor; IC50 (DYRK1A; read-out: IC50 to inhibit DYRK1A activity): 0.33 µM

With `Oc1cc(O)c2c(c1)O[C@H](c1ccc(O)c(O)c1)[C@H](O)C2` [EC, epicatechin] as the compound, how does the remaining activity at 0.1 µM [1, 4] read?
The remaining activity at 0.1 µM was 89.2 ± 9.5%.

What about the remaining activity at 1 µM [1, 5] of the same compound?
The remaining activity at 1 µM was 84.1 ± 9.1%.

What about the remaining activity at 10 µM [1, 6] of the same compound?
Its remaining activity at 10 µM is 95.6 ± 8.1%.

And the remaining activity at 100 µM [1, 7]?
Its remaining activity at 100 µM is 88.7 ± 8.2%.

And the “Effect on DYRK1A-ΔC activity (in words)” value ([1]; 1 mM ATP)?
Its value is “No effect”.
